This note sets out measurements from US20200131180A1, “POSITIVE ALLOSTERIC MODULATORS OF THE MUSCARINIC ACETYLCHOLINE RECEPTOR M1” (Vanderbilt University, priority 2018, published 2020).

The target of this test is T1, human mAChR M1 (Homo sapiens, UniProt P11229).
T1 sequence (P11229 1-460): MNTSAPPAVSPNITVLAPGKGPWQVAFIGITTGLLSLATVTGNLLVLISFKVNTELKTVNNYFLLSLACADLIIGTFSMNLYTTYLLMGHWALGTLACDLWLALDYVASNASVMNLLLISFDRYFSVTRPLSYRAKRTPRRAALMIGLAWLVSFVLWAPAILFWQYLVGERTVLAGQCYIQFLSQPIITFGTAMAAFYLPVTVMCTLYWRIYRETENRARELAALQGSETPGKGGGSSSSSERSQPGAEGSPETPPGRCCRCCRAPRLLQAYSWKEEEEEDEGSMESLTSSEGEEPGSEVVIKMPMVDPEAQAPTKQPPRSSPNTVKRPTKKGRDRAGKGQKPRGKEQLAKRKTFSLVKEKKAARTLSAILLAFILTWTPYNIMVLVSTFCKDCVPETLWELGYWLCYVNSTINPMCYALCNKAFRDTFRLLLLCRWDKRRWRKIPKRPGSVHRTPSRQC
Description: mAChR M1 cell-based functional assay (calcium mobilization, PAM activity). The note with it: CHO-K1 cells expressing hM1, calcium flux (Fluo-4); for EC50: concentration-dependent increase in the EC20 acetylcholine response; for Emax: potentiation of EC20 acetylcholine response. In short, it runs like this:
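CHO-K1 cells stably expressing hM1, Fluo-4 AM-loaded; compounds (11-point 1:3 CRC) added, then acetylcholine at EC20 (144 s) and EC80 (230 s). Calcium flux read by FDSS fluorescence ratio; PAM activity is the concentration-dependent increase in the EC20 ACh response, Emax relative to ACh maximum; four-parameter logistic fit.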
A general note: Calcium assays in cells follow changes in intracellular calcium, usually with a dye or a luminescent sensor.

The EC50 is the midpoint of the concentration-response curve. As usually defined, the Emax is the maximal effect, on the per cent scale that the assay sets. With `Cn1cc(-c2ccc(Cc3cc(C(=O)N[C@H]4CCCC[C@@H]4O)c4ncnn4c3)c(F)c2)cn1` [compound 48, 6-[[2-fluoro-4-(1-methylpyrazol-4-yl)phenyl]methyl]-N-[(1S,2S)-2-hydroxycyclohexyl]-[1,2,4]triazolo[1,5-a]pyridine-8-carboxamide], the EC50 was 0.229 µM and the Emax stood at 76%.

Regarding `Cn1cc(-c2cc(F)c(Cc3cc(C(=O)N[C@H]4CCOC[C@@H]4O)c4nccn4c3)c(F)c2)cn1` [compound 49, 6-[[2,6-difluoro-4-(1-methylpyrazol-4-yl)phenyl]methyl]-N-[(3R,4S)-3-hydroxytetrahydropyran-4-yl]imidazo[1,2-a]pyridine-8-carboxamide], the EC50 is 0.474 µM and the Emax came to 67%.

With `Cc1c(Cc2ccc(-c3ccn(C)n3)cc2)cc(C(=O)N[C@H]2CCOC[C@@H]2O)c2nccn12` [compound 50, N-[(3R,4S)-3-hydroxytetrahydropyran-4-yl]-5-methyl-6-[[4-(1-methylpyrazol-3-yl)phenyl]methyl]imidazo[1,2-a]pyridine-8-carboxamide], the EC50 stood at 0.0246 µM and the Emax came out at 53%.

For the molecule `Cc1c(Cc2ccc(-c3ccn(C)n3)cc2)cc(C(=O)N[C@H]2CCCC[C@@H]2O)c2nccn12` [compound 51, N-[(1S,2S)-2-hydroxycyclohexyl]-5-methyl-6-[[4-(1-methylpyrazol-3-yl)phenyl]methyl]imidazo[1,2-a]pyridine-8-carboxamide], the concentration for a half-maximal effect (EC50) was found to be 0.138 µM and the Emax is 59%.

As for `Cn1ccc(-c2ccc(Cc3cc(C(=O)N[C@H]4CCCC[C@@H]4O)c4nccn4c3)c(F)c2)n1` [compound 52, 6-[[2-fluoro-4-(1-methylpyrazol-3-yl)phenyl]methyl]-N-[(1S,2S)-2-hydroxycyclohexyl]imidazo[1,2-a]pyridine-8-carboxamide], the EC50 turned out to be 0.414 µM and the Emax is 70%.

Take `Cn1ccc(-c2ccc(Cc3cc(C(=O)N[C@H]4CCOC[C@@H]4O)c4nccn4c3)c(F)c2)n1` [compound 53, 6-[[2-fluoro-4-(1-methylpyrazol-3-yl)phenyl]methyl]-N-[(3R,4S)-3-hydroxytetrahydropyran-4-yl]imidazo[1,2-a]pyridine-8-carboxamide]: the EC50 amounted to 0.249 µM and the Emax worked out at 66%.

For the molecule `Cn1cc(-c2ccc(Cc3cc(C(=O)N[C@H]4CCCC[C@@H]4O)c4nccn4c3)c(F)c2)cn1` [compound 54, 6-[[2-fluoro-4-(1-methylpyrazol-4-yl)phenyl]methyl]-N-[(1S,2S)-2-hydroxycyclohexyl]imidazo[1,2-a]pyridine-8-carboxamide], the EC50 came out at 0.217 µM and the maximal response (Emax) came to 70%.

With `Cn1cc(-c2ccc(Cc3cc(C(=O)N[C@H]4CCOC[C@@H]4O)c4nccn4c3)c(F)c2)cn1` [compound 55, 6-[[2-fluoro-4-(1-methylpyrazol-4-yl)phenyl]methyl]-N-[(3R,4S)-3-hydroxytetrahydropyran-4-yl]imidazo[1,2-a]pyridine-8-carboxamide], the EC50 is 0.123 µM and the Emax was found to be 65%.

Take `Cc1c(Cc2ccc(-c3cnn(C)c3)cc2F)cc(C(=O)N[C@H]2CCOC[C@@H]2O)c2nccn12` [compound 56, 6-[[2-fluoro-4-(1-methylpyrazol-4-yl)phenyl]methyl]-N-[(3R,4S)-3-hydroxytetrahydropyran-4-yl]-5-methyl-imidazo[1,2-a]pyridine-8-carboxamide]: the EC50 is 0.0322 µM and the Emax was 72%.

In the case of `Cc1c(Cc2ccc(-c3cnn(C)c3)cc2F)cc(C(=O)N[C@H]2CCCC[C@@H]2O)c2nccn12` [compound 57, 6-[[2-fluoro-4-(1-methylpyrazol-4-yl)phenyl]methyl]-N-[(1S,2S)-2-hydroxycyclohexyl]-5-methyl-imidazo[1,2-a]pyridine-8-carboxamide], the EC50 was 0.0978 µM and the Emax came out at 68%.

With `Cn1cc(-c2ccc(Cc3cc(C(=O)N[C@H]4CCC[C@@H]4O)c4nccn4c3)c(F)c2)cn1` [compound 58, 6-[[2-fluoro-4-(1-methylpyrazol-4-yl)phenyl]methyl]-N-[(1S,2S)-2-hydroxycyclopentyl]imidazo[1,2-a]pyridine-8-carboxamide], the EC50 stood at 0.991 µM and the Emax is 84%.

As to `Cn1ccc(-c2ccc(Cc3cc(C(=O)N[C@H]4CCC[C@@H]4O)c4nccn4c3)c(F)c2)n1` [compound 59, 6-[[2-fluoro-4-(1-methylpyrazol-3-yl)phenyl]methyl]-N-[(1S,2S)-2-hydroxycyclopentyl]imidazo[1,2-a]pyridine-8-carboxamide], the EC50 worked out at 1.2 µM and the Emax was found to be 79%.

On to `O=C(N[C@H]1CCCC[C@@H]1O)c1cc(Cc2ccc(-n3cccn3)nc2)cn2ccnc12` [compound 60, N-[(1S,2S)-2-hydroxycyclohexyl]-6-[(6-pyrazol-1-yl-3-pyridyl)methyl]imidazo[1,2-a]pyridine-8-carboxamide], for which the EC50 was 1.01 µM and the Emax amounted to 47%.

Turning to `O=C(N[C@H]1CCCCC[C@@H]1O)c1cc(Cc2ccc(-n3cccn3)nc2)cn2ccnc12` [compound 61, N-[(1S,2S)-2-hydroxycycloheptyl]-6-[(6-pyrazol-1-yl-3-pyridyl)methyl]imidazo[1,2-a]pyridine-8-carboxamide], the EC50 was 2.54 µM and the Emax worked out at 52%.

Regarding `Cn1cc(-c2ccc(Cc3cc(C(=O)N[C@H]4CCCC[C@@H]4O)c4nccn4c3)cc2)cn1` [compound 62, N-[(1S,2S)-2-hydroxycyclohexyl]-6-[[4-(1-methylpyrazol-4-yl)phenyl]methyl]imidazo[1,2-a]pyridine-8-carboxamide], the EC50 came out at 0.699 µM and the Emax was 89%.

On to `O=C(N[C@H]1CCOC[C@@H]1O)c1cc(Cc2ccc(-n3cccn3)nc2)cn2ccnc12` [compound 63, N-[(3R,4S)-3-hydroxytetrahydropyran-4-yl]-6-[(6-pyrazol-1-yl-3-pyridyl)methyl]imidazo[1,2-a]pyridine-8-carboxamide], for which the EC50 was found to be 4.82 µM and the Emax was 67%.

As for `O=C(N[C@H]1CCCC[C@@H]1O)c1cc(Cc2ccc(C(F)(F)F)nc2)cn2ccnc12` [compound 64, N-[(1S,2S)-2-hydroxycyclohexyl]-6-[[6-(trifluoromethyl)-3-pyridyl]methyl]imidazo[1,2-a]pyridine-8-carboxamide], the Emax came to 46%.

Turning to `Cn1cc(-c2ccc(Cc3cc(C(=O)N[C@H]4CCOC[C@@H]4O)c4nccn4c3)cc2)cn1` [compound 65, N-[(3R,4S)-3-hydroxytetrahydropyran-4-yl]-6-[[4-(1-methylpyrazol-4-yl)phenyl]methyl]imidazo[1,2-a]pyridine-8-carboxamide], the EC50 was found to be 1.36 µM and the Emax turned out to be 90%.

With `O=C(N[C@H]1CCOC[C@@H]1O)c1cc(Cc2ccc(C(F)(F)F)nc2)cn2ccnc12` [compound 66, N-[(3R,4S)-3-hydroxytetrahydropyran-4-yl]-6-[[6-(trifluoromethyl)-3-pyridyl]methyl]imidazo[1,2-a]pyridine-8-carboxamide], the Emax came to 36%.

`O=C(NC1CCOCC1)c1cc(Cc2ccc(-n3cccn3)cc2)cc2ncnn12` [compound 67, 7-(4-(1H-pyrazol-1-yl)benzyl)-N-(tetrahydro-2H-pyran-4-yl)-[1,2,4]triazolo[1,5-a]pyridine-5-carboxamide]: the Emax is 46%.
